In US10023557B2 (LifeSci Pharmaceuticals, Inc., priority 2015, dated 2018):
pEC50, pIC50: −log10 of the molar value.

Experiments:
[1] = target: human plasma kallikrein (Homo sapiens (Human), UniProt P03952); assay: In vitro enzyme inhibition of human plasma kallikrein (PFR-AMC cleavage); format: biochemical; details: Pro-Phe-Arg-AMC substrate, 37° C., read-out: hPK IC50
In short: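 Human plasma kallikrein and compound, diluted in 50 mM Tris-HCl pH 7.5, 150 mM NaCl, 0.01% Triton X-100, preincubated 5 min at 37 °C before PFR-AMC was added.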

[2] = target: cellular kallikrein activity (Homo sapiens (Human), UniProt P03952); assay: In vitro cellular assay (contact assay): kallikrein activity in ellagic acid-activated human plasma, Z-FR-2-AMC substrate; format: biochemical; details: human plasma activated with ellagic acid, 37° C.
Sequence of cellular kallikrein activity (P03952 391-638): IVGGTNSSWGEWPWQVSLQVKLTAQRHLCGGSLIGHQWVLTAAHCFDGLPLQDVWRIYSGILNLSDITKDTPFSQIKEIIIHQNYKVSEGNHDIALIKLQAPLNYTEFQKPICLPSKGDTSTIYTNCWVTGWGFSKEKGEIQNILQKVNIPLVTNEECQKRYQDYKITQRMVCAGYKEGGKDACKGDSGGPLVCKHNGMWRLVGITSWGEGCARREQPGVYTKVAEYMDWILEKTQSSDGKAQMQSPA
Sequence of cellular kallikrein activity (P03952 20-390 partner): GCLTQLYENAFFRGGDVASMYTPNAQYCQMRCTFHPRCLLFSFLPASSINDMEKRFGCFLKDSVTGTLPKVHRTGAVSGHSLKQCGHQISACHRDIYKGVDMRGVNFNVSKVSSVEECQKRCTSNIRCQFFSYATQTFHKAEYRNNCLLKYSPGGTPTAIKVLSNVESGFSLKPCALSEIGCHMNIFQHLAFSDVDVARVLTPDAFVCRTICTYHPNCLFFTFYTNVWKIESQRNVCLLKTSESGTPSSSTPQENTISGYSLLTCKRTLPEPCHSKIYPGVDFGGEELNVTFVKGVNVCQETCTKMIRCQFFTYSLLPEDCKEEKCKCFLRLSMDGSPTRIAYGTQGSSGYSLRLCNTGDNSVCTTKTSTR
Description: The ability of the compounds disclosed herein to inhibit cellular kallikrein activity was quantified and the respective EC50 value was determined.
All dilutions were prepared in an assay buffer comprising 50 mM Tris-HCl pH 7.2, 150 mM NaCl, and 0.01% Triton X-100.
The ten solutions of the test compounds, prepared by serial dilution, were further diluted 50-fold in the assay buffer.
Human plasma is thawed on ice and centrifuged for 15 min at 4° C. to remove platelets. A 1 mM stock solution of ellagic acid is diluted to 8 μM and mixed with human plasma, after removing platelets, at a ratio of 1:0.8.
A 22.5 μL volume of the final mixture of human plasma and ellagic acid was added to a 96-well microwell plate and the plate was incubated for 15 min at 37° C.
The CINH inhibitor at various concentrations, prepared by serial dilutions as described above, were added to the inhibitor control wells. […] Each CINH concentration is tested in duplicates.
The test compounds at various concentrations, also prepared by serial dilutions as described above, are added to the test wells. […] Each test compound concentration was tested in duplicates.
In addition to the inhibitor control and test wells, the 96 well assay plate includes positive control wells which contained the mixture of human plasma and ellagic acid without C1NH inhibitor or test compounds, and background wells which contained neither the mixture of human plasma and ellagic acid nor the test compounds. The total volume of liquid in positive control and background wells was brought up to 35 μL, using the assay buffer.
The assay plate containing C1NH inhibitors and test compounds mixed with human plasma and ellagic acid and appropriate controls was incubated at 37° C. for 5 min. […] The reagents were mixed well by shaking the plate gently for 30 sec.
The enzyme reaction was quantified by immediate kinetic reading of the assay plate using excitation/emission wavelengths of 330 nm/440 nm respectively. Fluorescence intensity was recorded for 60 min, using a time interval of 43 sec.
The inhibition activity of the test compounds were evaluated using the EC50 values, calculated according to the dose-response curve of the test compounds, fitted using the “log(inhibitor)−response (variable slope)” equation in GraphPadPrism software (GraphPad Software, Inc.).
The percentage inhibition was calculated using the following equation:
[formula] where, Mean (BG) is the average value of the fluorescence intensity of the background wells and Mean (PC) is the average value of the fluorescence intensity of the positive control wells.
Table 4 provides the EC50 values of various compounds disclosed herein.

Sequence of human plasma kallikrein (P03952 391-638): as the sequence (P03952 391-638) above
Sequence of human plasma kallikrein (P03952 20-390 partner): as the sequence (P03952 20-390 partner) above

Row | Structure (SMILES) | pIC50 [1] | pEC50 [2]
1 | Nc1nccc2cc(CNC(=O)c3ccnc(Cc4ccc5ncc(C6CC6)cc5c4)c3)ccc12 [Example 247, N-((1-aminoisoquinolin-6-yl)methyl)-2-((3-cyclopropylquinolin-6-yl)methyl)isonicotinamide] | > 7.00 | > 7.00
2 | Cc1cc(CN)nc(C)c1CNC(=O)c1ccnc(Cc2ccc3ncc(Cl)cc3c2)c1 [Example 171, N-((6-(aminomethyl)-2,4-dimethylpyridin-3-yl)methyl)-2-((3-chloroquinolin-6-yl)methyl)isonicotinamide] | > 7.00 | 6.00 to 7.00
3 | O=C(NCc1cc2c(Cl)c[nH]c2cc1F)c1ccnc(Cc2ccc3ncc(C(F)(F)F)cc3c2)c1 [Example 230, N-((3-chloro-6-fluoro-1H-indol-5-yl)methyl)-2-((3-(trifluoromethyl)quinolin-6-yl)methyl)isonicotinamide] | > 7.00 | 6.00 to 7.00
4 | CC(C)(O)c1cc(Cc2cc(C(=O)NCc3ccc4c(N)nccc4c3)ccn2)cc2cc(Cl)cnc12 [Example 224, N-((1-aminoisoquinolin-6-yl)methyl)-2-((3-chloro-8-(2-hydroxypropan-2-yl)quinolin-6-yl)methyl)isonicotinamide] | > 7.00 | > 7.00
5 | Cc1c(CNC(=O)c2ccnc(Cc3ccc4ncc(C(F)(F)F)cc4c3)c2)ccc2c(N)nccc12 [Example 184, N-((1-amino-5-methylisoquinolin-6-yl)methyl)-2-((3-(trifluoromethyl)quinolin-6-yl)methyl)isonicotinamide] | > 7.00 | > 7.00
6 | Cc1cc(N)nc(C)c1CNC(=O)c1ccnc(Cc2ccc3ncc(C(C)C)cc3c2)c1 [Example 254, N-((6-amino-2,4-dimethylpyridin-3-yl)methyl)-2-((3-isopropylquinolin-6-yl)methyl)isonicotinamide] | > 7.00 | > 7.00
7 | Nc1nccc2cc(CNC(=O)c3ccnc(Cc4ccc5ncc(Cl)cc5c4)c3)c(F)cc12 [Example 180, N-((1-amino-7-fluoroisoquinolin-6-yl)methyl)-2-((3-chloroquinolin-6-yl)methyl)isonicotinamide] | > 7.00 | 6.00 to 7.00
8 | Cc1cc(N)nc(C)c1CNC(=O)c1ccnc(Cc2cc3cc(C(F)(F)F)cnc3[nH]2)c1 [Example 215, N-((6-amino-2,4-dimethylpyridin-3-yl)methyl)-2-((5-(trifluoromethyl)-1H-pyrrolo[2,3-b]pyridin-2-yl)methyl)isonicotinamide] | > 7.00 | 6.00 to 7.00
9 | Cc1cc(N)nc(C)c1CNC(=O)c1ccnc(Cc2cnc3[nH]c(C(F)(F)F)cc3c2)c1 [Example 152, N-((6-amino-2,4-dimethylpyridin-3-yl)methyl)-2-((2-(trifluoromethyl)-1H-pyrrolo[2,3-b]pyridin-5-yl)methyl)isonicotinamide] | > 7.00 | 6.00 to 7.00
10 | Cc1cnc2c(S(N)(=O)=O)cc(Cc3cc(C(=O)NCc4ccc5c(N)nccc5c4)ccn3)cc2c1 [Example 289, N-((1-aminoisoquinolin-6-yl)methyl)-2-((3-methyl-8-sulfamoylquinolin-6-yl)methyl)isonicotinamide] | > 7.00 | > 7.00
11 | O=C(NCc1ccc2[nH]cc(Cl)c2c1F)c1ccnc(Cc2ccc3ncc(C(F)(F)F)cc3c2)c1 [Example 234, N-((3-chloro-4-fluoro-1H-indol-5-yl)methyl)-2-((3-(trifluoromethyl)quinolin-6-yl)methyl)isonicotinamide] | > 7.00 | 6.00 to 7.00
12 | Cc1nc(N)ccc1CNC(=O)c1ccnc(Cc2ccc3ncc(CC(F)F)cc3c2)c1 [Example 279, N-((6-amino-2-methylpyridin-3-yl)methyl)-2-((3-(2,2-difluoroethyl)quinolin-6-yl)methyl)isonicotinamide] | > 7.00 | 6.00 to 7.00
13 | Cc1cc(N)nc(C)c1CNC(=O)c1ccnc(Cc2cc3cc(Cl)cn3cn2)c1 [Example 153, N-((6-amino-2,4-dimethylpyridin-3-yl)methyl)-2-((6-chloropyrrolo[1,2-c]pyrimidin-3-yl)methyl)isonicotinamide] | > 7.00 | > 7.00
14 | Cc1cc(N)nc(C)c1CNC(=O)c1ccnc(Cc2ccc3nc(C)c(Cl)cc3c2)c1 [Example 238, N-((6-amino-2,4-dimethylpyridin-3-yl)methyl)-2-((3-chloro-2-methylquinolin-6-yl)methyl)isonicotinamide] | > 7.00 | > 7.00
15 | CCc1cnc2ccc(Cc3cc(C(=O)NCc4ccc5c(N)nccc5c4)ccn3)cc2c1 [Example 283, N-((1-aminoisoquinolin-6-yl)methyl)-2-((3-ethylquinolin-6-yl)methyl)isonicotinamide] | > 7.00 | > 7.00
16 | Cc1cc(CN)nc(C)c1CNC(=O)c1ccnc(Cc2ccc3ncc(C(F)(F)F)cc3c2)c1 [Example 172, N-((6-(aminomethyl)-2,4-dimethylpyridin-3-yl)methyl)-2-((3-(trifluoromethyl)quinolin-6-yl)methyl)isonicotinamide] | > 7.00 | > 7.00
17 | Cc1cnc2c(S(N)(=O)=O)cc(Cc3cc(C(=O)NCc4cc5c(Cl)c[nH]c5cc4F)ccn3)cc2c1 [Example 287, N-((3-chloro-6-fluoro-1H-indol-5-yl)methyl)-2-((3-methyl-8-sulfamoylquinolin-6-yl)methyl)isonicotinamide] | > 7.00 | > 7.00
18 | Cc1ccn2cnc(CNC(=O)c3ccnc(Cc4ccc5ncc(Cl)cc5c4)c3)c2c1 [Example 156, 2-((3-chloroquinolin-6-yl)methyl)-N-((7-methylimidazo[1,5-a]pyridin-1-yl)methyl)isonicotinamide] | > 7.00 | 6.00 to 7.00
19 | Cc1cnc2c(S(N)(=O)=O)cc(Cc3cc(C(=O)NCc4cnc5[nH]cc(Cl)c5c4)ccn3)cc2c1 [Example 291, N-((3-chloro-1H-pyrrolo[2,3-b]pyridin-5-yl)methyl)-2-((3-methyl-8-sulfamoylquinolin-6-yl)methyl)isonicotinamide] | > 7.00 | > 7.00
20 | CC(C)(O)c1cc(Cc2cc(C(=O)NCc3cc4c(Cl)c[nH]c4cc3F)ccn2)cc2cc(Cl)cnc12 [Example 221, N-((3-chloro-6-fluoro-1H-indol-5-yl)methyl)-2-((3-chloro-8-(2-hydroxypropan-2-yl)quinolin-6-yl)methyl)isonicotinamide] | > 7.00 | 6.00 to 7.00
21 | Cc1cc(N)nc(C)c1CNC(=O)c1cc(CC(N)=O)nc(Cc2ccc3ncc(Cl)cc3c2)c1 [Example 214, N-((6-amino-2,4-dimethylpyridin-3-yl)methyl)-2-(2-amino-2-oxoethyl)-6-((3-chloroquinolin-6-yl)methyl)isonicotinamide] | > 7.00 | > 7.00
22 | Cc1cc(N)nc(C)c1CNC(=O)c1ccnc(Cc2cc(-c3nnn[nH]3)c3ncc(Cl)cc3c2)c1 [Example 272, N-((6-amino-2,4-dimethylpyridin-3-yl)methyl)-2-((3-chloro-8-(1H-tetrazol-5-yl)quinolin-6-yl)methyl)isonicotinamide] | > 7.00 | 6.00 to 7.00
23 | Cc1cc2c(N)nccc2cc1CNC(=O)c1ccnc(Cc2ccc3ncc(C(F)(F)F)cc3c2)c1 [Example 183, N-((1-amino-7-methylisoquinolin-6-yl)methyl)-2-((3-(trifluoromethyl)quinolin-6-yl)methyl)isonicotinamide] | > 7.00 | > 7.00
